The results in this text go back to PubChem BioAssay AID791 (The Scripps Research Institute Molecular Screening Center, 2007).

Calls of active or inactive are those of the source.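 Rule for the calls: active = IC50 at or below 10 µM; inactive = IC50 above 10 µM.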

The target of this test is Rho-associated protein kinase 2 (Homo sapiens) (UniProt O75116). In words: blockers of Rho kinase 2 activity – biochemical, Kinase-Glo luminescence, S6 peptide, 384-well, dose response (AID 791). Conditions: recombinant ROCK2, S6 peptide. On the technique in general: Kinase-Glo reads ATP consumption through a luciferase reaction.
Sequence of Rho-associated protein kinase 2 (Homo sapiens) (O75116 whole entry, looked up): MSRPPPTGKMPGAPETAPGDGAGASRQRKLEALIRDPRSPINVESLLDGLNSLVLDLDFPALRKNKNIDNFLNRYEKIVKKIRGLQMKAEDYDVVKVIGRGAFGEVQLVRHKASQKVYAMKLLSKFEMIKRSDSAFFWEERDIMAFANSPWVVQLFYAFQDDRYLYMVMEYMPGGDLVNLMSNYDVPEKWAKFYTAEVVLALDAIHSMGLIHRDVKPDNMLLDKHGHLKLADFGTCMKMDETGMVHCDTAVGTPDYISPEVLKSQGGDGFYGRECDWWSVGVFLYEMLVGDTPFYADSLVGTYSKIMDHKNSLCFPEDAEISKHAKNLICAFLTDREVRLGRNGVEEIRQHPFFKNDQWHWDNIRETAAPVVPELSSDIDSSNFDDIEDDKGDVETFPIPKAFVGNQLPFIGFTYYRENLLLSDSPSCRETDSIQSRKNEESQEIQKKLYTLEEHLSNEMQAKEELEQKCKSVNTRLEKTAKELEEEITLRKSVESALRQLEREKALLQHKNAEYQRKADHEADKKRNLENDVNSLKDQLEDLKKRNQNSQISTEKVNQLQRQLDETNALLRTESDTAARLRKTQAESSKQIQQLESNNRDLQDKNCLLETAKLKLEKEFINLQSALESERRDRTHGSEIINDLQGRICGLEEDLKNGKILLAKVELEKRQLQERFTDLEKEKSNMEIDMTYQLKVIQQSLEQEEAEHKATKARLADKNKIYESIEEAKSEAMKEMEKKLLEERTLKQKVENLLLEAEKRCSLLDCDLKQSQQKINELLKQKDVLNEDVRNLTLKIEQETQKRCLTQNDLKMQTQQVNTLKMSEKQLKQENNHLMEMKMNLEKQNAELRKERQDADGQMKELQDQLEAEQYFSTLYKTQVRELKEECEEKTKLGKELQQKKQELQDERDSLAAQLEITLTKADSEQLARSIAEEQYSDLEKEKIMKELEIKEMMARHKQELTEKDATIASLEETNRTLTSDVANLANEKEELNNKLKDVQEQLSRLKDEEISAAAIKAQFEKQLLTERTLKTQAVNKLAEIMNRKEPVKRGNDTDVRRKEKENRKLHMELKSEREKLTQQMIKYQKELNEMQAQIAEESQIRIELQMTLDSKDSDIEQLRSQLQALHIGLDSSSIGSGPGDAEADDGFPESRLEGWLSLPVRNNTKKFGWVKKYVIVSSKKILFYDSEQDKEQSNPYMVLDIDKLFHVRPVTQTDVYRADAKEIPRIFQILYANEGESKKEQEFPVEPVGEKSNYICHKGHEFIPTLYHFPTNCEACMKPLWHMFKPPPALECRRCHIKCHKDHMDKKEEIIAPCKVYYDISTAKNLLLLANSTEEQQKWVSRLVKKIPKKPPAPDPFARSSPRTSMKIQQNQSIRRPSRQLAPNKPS
Take `C[C@@H](N)C(=O)N1CCN(c2ccc3[nH]ncc3c2)CC1`: the IC50 is > 10600 nM (inactive). The result for `NC(C(=O)N1CCN(c2ccc3[nH]ncc3c2)CC1)c1cccc(Cl)c1` (stereo not drawn) reads 756 nM; that for `N[C@H](Cc1ccccc1)C(=O)N1CCN(c2ccc3[nH]ncc3c2)CC1`, 379 nM.

As to `NC(C(=O)N1CCC(Nc2ccc3[nH]ncc3c2)CC1)c1ccc(Br)cc1` (stereo not drawn), the IC50 was 1.26 nM. For the compound `O=C([C@H](O)c1cccc(Cl)c1)N1CCC(Nc2ccc3[nH]ncc3c2)CC1`, the half-inhibitory concentration (IC50) is 350 nM. The result for `O=C(C(O)c1ccc(Br)cc1)N1CCC(Nc2ccc3[nH]ncc3c2)CC1` (stereo not drawn) reads 8.87 nM; that for `N[C@H](C(=O)N1CCC(Nc2ccc3[nH]ncc3c2)CC1)c1ccccc1`, 835 nM; that for `O=C(C(O)c1ccc(Br)cc1)N1CCN(c2ccc3[nH]ncc3c2)CC1` (stereo not drawn), 7.86 nM.

Consider `O=C([C@H](O)c1ccccc1)N1CCN(c2ccc3[nH]ncc3c2)CC1`, for which the concentration for half-maximal inhibition (IC50) is 855 nM. For `N[C@@H](Cc1ccccc1)C(=O)N1CCC(Nc2ccc3[nH]ncc3c2)CC1` the value was 468 nM; for `O=C([C@@H](O)c1ccccc1Cl)N1CCC(Nc2ccc3[nH]ncc3c2)CC1`, 1700 nM. As to `NC(C(=O)N1CCN(c2ccc3[nH]ncc3c2)CC1)c1ccc(Cl)cc1` (stereo not drawn), the 50% inhibitory concentration (IC50) was 188 nM. The result for `O=C([C@H](O)c1cccc(Cl)c1)N1CCN(c2ccc3[nH]ncc3c2)CC1` reads 1050 nM. As for `CC(C)[C@@H](O)C(=O)N1CCN(c2ccc3[nH]ncc3c2)CC1`, the IC50 is 3910 nM. Consider `O=C([C@H](O)c1ccccc1)N1CCC(Nc2ccc3[nH]ncc3c2)CC1`, for which the IC50 is 774 nM.

Take `O=C([C@@H]1Cc2ccccc2CN1)N1CCN(c2ccc3[nH]ncc3c2)CC1`: the IC50 is 5320 nM. For `NC(C(=O)N1CCC(Nc2ccc3[nH]ncc3c2)CC1)c1cccc(Cl)c1` (stereo not drawn) the value was 148 nM. For `C[C@H](O)C(=O)N1CCC(Nc2ccc3[nH]ncc3c2)CC1` the value was > 10000 nM (inactive). The result for `N[C@@H](C(=O)N1CCN(c2ccc3[nH]ncc3c2)CC1)c1ccccc1` reads 1400 nM; that for `NC(C(=O)N1CCN(c2ccc3[nH]ncc3c2)CC1)c1ccc(Br)cc1` (stereo not drawn), 8.97 nM; that for `O=C([C@H](O)c1ccccc1Cl)N1CCN(c2ccc3[nH]ncc3c2)CC1`, 1200 nM. As to `O=C(C(O)c1ccc(Cl)cc1)N1CCN(c2ccc3[nH]ncc3c2)CC1` (stereo not drawn), the IC50 was 186 nM. The result for `C[C@H](N)C(=O)N1CCC(Nc2ccc3[nH]ncc3c2)CC1` reads 5740 nM.

One may read the IC50 as the concentration that inhibits the measured activity by half.
